Entries after “also recorded” stand apart in the source; their conditions may differ.
Assays:
Id1 [1] = test: Compound screen: BMP4-induced Id1 expression, Western blot; type: cell-based, murine; details: for Inhibitory effect on Id1 protein expression: B16-F10 and Ret cells, BMP4 10 ng/ml and compound simultaneously, 24 h, rated relative to CBD
Method: (§1) To screen compounds with an inhibitory effect on Id1 and Id3 expression, cells were simultaneously stimulated with BMP4 (10 ng/ml, 315-27, Peprotech) and substances at the indicated concentrations for 24 h. DMSO served as a solvent control. Effects on Id1 and Id3 expression levels were analysed by Western blotting.
(§2) Western blot analysis was performed using standard methods. The following antibodies were used for protein detection: Id1 (195-14, CalBioreagents), Id3 (17-3, CalBioreagents), β-actin (AC-15, Sigma Aldrich), Vinculin (VIN-11-5, Sigma Aldrich). Protein bands were detected using HRP conjugated secondary antibodies (P0447, P0448, Agilent Technologies) and enhanced chemiluminescence (32106, Thermo Fisher Scientific).
(§3) B16-F10 and Ret melanoma cells were treated with BMP4 to induce Id1 and Id3 expression, and simultaneously treated with each of the compounds individually for a 24 h period.

Id3 [2] = test: Compound screen: BMP4-induced Id3 expression, Western blot; type: cell-based, murine; details: for Inhibitory effect on Id3 protein expression: B16-F10 and Ret cells, BMP4 10 ng/ml and compound simultaneously, 24 h, rated relative to CBD
Method: as §1, §2, §3

glioma = glioma model; cited from earlier work
CB2 = CB2 (Homo sapiens, UniProt P34972); details: cited from earlier work
Chain of CB2 (P34972 whole entry, species assumed): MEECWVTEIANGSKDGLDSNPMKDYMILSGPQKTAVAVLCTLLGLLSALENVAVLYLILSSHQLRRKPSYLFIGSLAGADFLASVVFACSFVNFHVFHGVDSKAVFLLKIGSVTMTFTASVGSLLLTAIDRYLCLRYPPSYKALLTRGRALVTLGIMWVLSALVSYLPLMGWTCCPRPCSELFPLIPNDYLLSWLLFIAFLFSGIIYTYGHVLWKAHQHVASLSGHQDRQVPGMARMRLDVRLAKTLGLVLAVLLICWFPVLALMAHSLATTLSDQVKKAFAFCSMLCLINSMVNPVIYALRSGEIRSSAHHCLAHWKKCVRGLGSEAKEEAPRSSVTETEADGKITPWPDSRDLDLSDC

B16-F10 and Ret cells [3] = test: Proliferation of melanoma cells in 2D culture; type: cell-based, murine
B16-F10 and Ret cells [4] = test: 3D Matrigel assay; type: cell-based, murine
Method: X8166 inhibits melanoma cell growth in 3D Matrigel. B16-F10 (A) or Ret (B) control or CRISPR/Cas9 Id1/Id3 cells were seeded in 3D Matrigel (10 mg/ml) and grown for six days before analysis. B16-F10 or Ret cells were treated daily with DMSO or X8166 (7.5 μM). The number of colonies at six positions of each well of a 48-well plate were counted in each z-level (5-10 z-levels were imaged per position).
Cells (2×10^3) were mixed with Matrigel to obtain 150 μl of a cell/Matrigel (10 mg/ml, #354262, Corning Inc.) solution, which was seeded into a well of a 48-well plate. The gel was allowed to solidify at 37° C. for 30 min and was subsequently overlaid with 500 μl complete growth medium. After six days of culture, images were captured using a Leica DMI6000 B microscope at six different x/y positions in every well, and a minimum of five horizontal layers (z levels) at each position, in order to get every cell in focus for image analysis. Image analysis was performed using Fiji software as follows: First, images were transformed into 8-bit files (pixel values from 0 (black) to 255 (white)). The scale was set to distance=0, known=0, pixel=1, and unit=pixel global. Outlines of each colony in focus in every image were detected using the integrated semi-automatic magic wand tool. Once outlines were matching the morphology of the colony were obtained, the colony was filled white (pixel value 255) using the fill function. Thresholding of pixel values (threshold=255) allowed black (background) and white (colonies) images of the filled colonies to be obtained. The “Analyze particles” function was applied to measure the area and perimeter of colonies with a minimum pixel size of 1500. An invasive index was calculated as follows: Invasive index=(perimeter)^2/area, resulting in a unitless measure of invasiveness.

[5] = Toxicity observed in treated tumor-bearing mice; type: in vivo; details: daily intraperitoneal injections; for Toxicity in the treated mice: 14 days
Method: (§4) Cells were harvested using trypsin/EDTA and washed in PBS. The indicated numbers of living melanoma cells were subcutaneously injected into the flank of syngeneic mice in 100 μl PBS. For co-injection experiments, the indicated number of living cells was resuspended in 100 μl Matrigel HC (10 mg/ml, #354262, Corning Inc.), and subcutaneously injected into the flank. Tumor volume was calculated using the formula 4/3π (d1/2×d2/2×d3/2), where d1−d3 represents the diameter of the tumor in three dimensions. […] All animal experiments were approved by the local authorities, and performed according to the German legal requirements. Tumor initiating cell (TIC) frequency and p-values were calculated using ELDA software.
In contrast, daily intraperitoneal injections of CBD led to the death of two mice in the experiment with Ret cell-derived tumors (cause of death unknown).

B16-F10 melanoma cells = test: Tumor growth and initiation in vivo, B16-F10; set-up: species or system mice; details: for Number of animals with tumors: B16-F10 cells, 8 mice per group, assessed over 90 days
Source text: (§5) B16-F10 (A) or Ret (B) cells were co-injected with Matrigel into syngeneic mice. […] Numbers indicate the number of animals with a tumor in each group. Bar graphs show the mean tumor volume in each group at the day when the first animal had reached the legal tumor size limit. Kaplan-Meier curves show the percentage of tumor-free animals in percent as a measure for tumor initiation.
as §4
(§6) To investigate the anti-tumor properties of the selected Id1/Id3-inhibiting compounds, groups of experimental mice (8 per group) were injected subcutaneously with B16-F10 or Ret melanoma cells. […] Melanoma initiation and growth was assessed over a period of 90 days.

Id1 [6] = details: cited from earlier work
[7] = system: mouse embryonic fibroblasts (MEFs); test: Proliferation/cytotoxicity in mouse embryonic fibroblasts, 2D culture; type: cell-based
mammary carcinoma = details: orthotropic mammary carcinoma model; cited from earlier work
Id1 [8] = test: Id1 expression in HUVECs, Western blot; type: cell-based, Human; details: proliferating HUVECs; 24 hours (FIG. 10A)
Method: (§7) Human umbilical vein endothelial cells (HUVECs) and lymphatic endothelial cells (LECs) were cultivated in EBM™-2 Endothelial Cell Growth Basal Medium supplemented with EGM™-2 MV Microvascular Endothelial Cell Growth Medium-2 SingleQuots™ Kit (both Lonza, catalogue numbers CC-3156 and CC4176, respectively), hereafter referred to as endothelial cell growth medium. HUVECs and LECs were cultivated in the presence of the indicated concentrations of X6632, or with DMSO as a solvent control. After 24 hours, cells were harvested. Lysates were western blotted and probed with antibodies against Id1 and Id3. Western blots probed with vinculin antibodies served as loading controls.
as §2
(§8) The effect of X6632 on Id1 and Id3 expression in cultivated proliferating human umbilical vein endothelial cells (HUVECs) was investigated. […] LDN-193189, an antagonist of BMP receptor isotypes ALK2 and ALK3, served as a positive control reference for inhibition of Id1 and Id3 expression.

Id3 [9] = test: Id3 expression in HUVECs, Western blot; type: cell-based, Human; details: proliferating HUVECs; 24 hours (FIG. 10A)
Method: as §7, §2, §8

Ret melanoma cells = test: Tumor growth and initiation in vivo, Ret; set-up: species or system mice
Source text: as §5, §4, §6

[10] = compound 3.3 μM, BMP4, 24 h (FIG. 9B)

CCCCCCC(C)(C)c1cc(O)c2cc(Cc3ccccc3O)c(=O)oc2c1 [X106]
Inhibitory effect on Id1 protein expression (Id1 [1]): strongest inhibitory activities | Inhibitory effect on Id3 protein expression (Id3 [2]): strongest inhibitory activities

C=C(C)[C@@H]1CCC(C)=C[C@H]1c1c(O)cc(CCCCC)cc1O [CBD, Cannabidiol, reference compound]
Inhibition of Id1 expression (Id1 [1]; [10]): does not inhibit | Id1 expression (glioma): inhibited | Invasion in vivo (glioma): decreased invasion | Survival of tumor-bearing mice (glioma): prolonged survival | Affinity for CB2 (CB2): low affinity | Proliferation / cytotoxicity, melanoma cells (B16-F10 and Ret cells [3]): strongly inhibited; also recorded: more cytotoxic | 3D assays could not be performed with daily application, reason (B16-F10 and Ret cells [4]; daily application in 3D Matrigel): cytotoxicity | Toxicity in the treated mice [5]: toxicity-related injury to their intestinal organs | Death of mice ([5]; experiment with Ret cell-derived tumors, cause of death unknown): two | Inhibition of Id3 expression (Id3 [2]; [10]): does not inhibit | Number of animals with tumors (B16-F10 melanoma cells): seven out of eight | Id1 expression at the transcriptional level (Id1 [6]): inhibits | Proliferation / cytotoxicity, non-transformed MEFs [7]: strongly inhibited; also recorded: more toxic | Levels of Id1 in tumor tissue (mammary carcinoma): reduced levels | Primary tumor growth and lung metastasis (mammary carcinoma): inhibition

Cc1ccc(CN(C(=O)c2ccccc2)c2nn(Cc3ccc(C)cc3)c3c(C(F)(F)F)cccc23)cc1 [X8766]
Inhibitory effect on Id1 protein expression (Id1 [1]): strongest inhibitory activities | Inhibitory effect on Id3 protein expression (Id3 [2]): strongest inhibitory activities

CCCCCCCC(C)(C)c1cc(O)c2cc(Cc3ccccc3O)c(=O)oc2c1 [X81]
Inhibitory effect on Id1 protein expression (Id1 [1]): strongest inhibitory activities | Inhibitory effect on Id3 protein expression (Id3 [2]): strongest inhibitory activities

Cc1cc(=O)oc2cc(O)ccc12 [4-methylumbelliferone, reference compound]
Id1 protein expression (Id1 [8]): did not reduce | Id3 protein expression (Id3 [9]): did not reduce

O=C(Nc1nn(Cc2ccc(C(F)(F)F)cc2)c2c(C(F)(F)F)cccc12)c1ccccc1 [X8035]
Inhibitory effect on Id1 protein expression (Id1 [1]): strongest inhibitory activities | Inhibitory effect on Id3 protein expression (Id3 [2]): strongest inhibitory activities

Cc1ccc(Cn2cc(CC(=O)Nc3ccc(C(F)(F)F)cc3)c3ccccc32)cc1 [X8706]
Inhibitory effect on Id1 protein expression (Id1 [1]): strongest inhibitory activities | Inhibitory effect on Id3 protein expression (Id3 [2]): strongest inhibitory activities

CCCCn1cc(C(=O)Cc2ccccc2)c2ccccc21 [X8166]
Inhibitory effect on Id1 protein expression (Id1 [1]): strongest inhibitory activities | Proliferation / cytotoxicity, melanoma cells (B16-F10 and Ret cells [3]): modest inhibitory effect; also recorded: less cytotoxic | Melanoma growth and initiation (Ret melanoma cells; Ret cells co-injected with Matrigel, syngeneic mice, daily i.p. first 14 days, compared to DMSO): significantly inhibit; also recorded: potent inhibitors | Number of mice that did not develop any tumors (Ret melanoma cells; Ret cells, 8 mice per group, assessed over 90 days): 2 mice | Tumor growth and initiation compared to CBD (Ret melanoma cells; Ret experiment, daily i.p. first 14 days): significantly more | Growth of melanoma cells in 3D Matrigel (B16-F10 and Ret cells [4]; Matrigel 10 mg/ml, six days, treated daily, X8166 7.5 μM): significantly impaired; also recorded: inhibits | Toxicity in the treated mice [5]: no evidence for toxicity was observed; also recorded: well tolerated | Inhibitory effect on Id3 protein expression (Id3 [2]): strongest inhibitory activities | Melanoma growth and initiation (B16-F10 melanoma cells; B16-F10 cells co-injected with Matrigel, syngeneic mice, daily i.p. first 14 days, compared to DMSO): significantly inhibit; also recorded: potent inhibitors | Number of animals with tumors (B16-F10 melanoma cells): none | Tumor growth and initiation compared to CBD (B16-F10 melanoma cells; B16-F10 experiment, daily i.p. first 14 days): significantly more | Proliferation / cytotoxicity, non-transformed MEFs [7]: modest inhibitory effect; also recorded: well tolerated; also recorded: superior; also recorded: less cytotoxic

Source: patent US20220259172A1, “CHEMICAL INHIBITORS OF ID PROTEINS FOR THE TREATMENT OF CANCER AND OTHER DISEASES” (Universität Heidelberg, priority 2019, published 2022)
